Test results: ChEMBL document CHEMBL1212807, “Chemical reprogramming of Caenorhabditis elegans germ cell fate” (Nat Chem Biol, 2010)
Active and inactive are the calls of the source. The rule behind the calls is not given here.

How the values were obtained:
Caenorhabditis elegans [1] = test: Induction of oocyte production in Caenorhabditis elegans Bristol isolate N2 with puf-1; lip-1 double mutant
Caenorhabditis elegans [2] = test: Induction of oocyte production in Caenorhabditis elegans Bristol isolate N2 with […]; lip-1 double mutant at 100 uM; type: functional
Caenorhabditis elegans [3] = test: Induction of oocyte production in Caenorhabditis elegans Bristol isolate N2 with […]; lip-1 double mutant assessed as change in oocyte-specific cellular morphology at 50 uM; type: functional
Caenorhabditis elegans [4] = test: Decrease in activated MPK-1/ERK levels in Caenorhabditis elegans Bristol isolate N2 by Western blot method at 50 uM; type: functional, organism-based
Caenorhabditis elegans [5] = test: Induction of oocyte production in Caenorhabditis elegans Bristol isolate N2 with […]; lip-1 double mutant assessed as expression of oocyte marker RME-2 50 uM; type: functional, organism-based

Structure (SMILES): N#CC(=C(/N)Sc1ccccc1N)/C(C#N)=C(\N)Sc1ccccc1N
- EC50 (Caenorhabditis elegans [1]): 2 µM

Structure (SMILES): COc1cccc(-c2cc(=O)c3ccccc3o2)c1N
- Activity (Caenorhabditis elegans [2]): 5.3%

Structure (SMILES): O=C(NOC[C@H](O)CO)c1ccc(F)c(F)c1Nc1ccc(I)cc1F [MIRDAMETINIB]
- Activity (Caenorhabditis elegans [3]): 91%
- Activity (Caenorhabditis elegans [4]): Active
- Activity (Caenorhabditis elegans [5]): Active
